According to patent publication US20100254965A1, “Adenosine Signaling in Diagnosis, Treatment, and Prevention of Priapism and Erectile Dysfunction” (BOARD OF REGENTS ,THE UNIVERSITY OF TEXAS SYSTEM, priority 2006, published 2010):

Key:
CCS and CCSM = assay: Phenylephrine-induced myosin light chain (MLC) phosphorylation, western blot; format: cell-based, mouse; conditions: intact penile organ culture and CCSM, PE 10 μM, adenosine 100 μM
Procedure: FIG. 18. Adenosine stimulated both cAMP and cGMP induction in corpus cavernosal smooth muscle cells (CCSM) via A2BR activation. (a) Adenosine receptor expression profile in purified primary CCSM. CCSM were purified from adult mouse penes. […] (b) CCSM were isolated and cultured from mouse penes. The cells were switched to serum-free medium and treated with different concentrations of adenosine with or without A2BR antagonist (MRS1706-10 μM), A2AR antagonist (ZM241385-50 nM) or A2AR agonist (CGS-21680-10 μM) alone for 10 min. Then cellular extracts were collected and cAMP levels were measured using an ELISA kit. […] After 10 min treatment, the cellular extracts were collected and cAMP levels were measured by using a commercial enzyme immunoassay kit (Amersham Pharmacia). […] 10 min after treatment, cellular extracts were collected and cGMP levels were measured by using a commercial enzyme immunoassay kit (Amersham Pharmacia). Data are expressed as mean±SE. *p<0.05, adenosine treated versus the control; **p<0.05, adenosine treated with MRS1706 versus the adenosine treated; ***p<0.05, CCS of A2BR-deficient mice treated with adenosine versus the CCS of wild type mice treated with adenosine. […] After 10 min treatment, the cellular extracts were collected and cAMP levels were measured by using a commercial enzyme immunoassay kit (Amersham Pharmacia). […]

[1] = test system: corpus cavernosum of wild type, A2A-deficient and A2B-deficient mice; assay: Intracavernous injection of adenosine: intracavernous pressure (ICP) and penile erection; format: in vivo, mouse
Procedure: FIG. 6. Different amounts of adenosine were injected into the corpus cavernosum of wild type, adenosine receptor A2A-deficient, and adenosine receptor A2B-deficient mice and the resulting change in ICP determined.
Methods: ADA-deficient mice and SCD transgenic mice, a well accepted priapism animal model, are the only animals known in which a persistent and prolonged penile erection occurs spontaneously. […] We have measured intracavernosal pressure and corpus cavernosal strip (CCS) relaxation with or without PEG-ADA treatment and/or a series of adenosine receptor antagonists or agonists in wild type ADA-deficient mice, and corpus cavernosal strip (CCS) relaxation with or without PEG-ADA treatment and/or a series of adenosine receptor antagonists or agonists in SCD transgenic mice, in response to nerve stimulation. We have also measured the intracavernosal pressure and CCS relaxation with or without adenosine treatment in wild type and multiple adenosine receptor deficient mice.

How did the “PE-mediated MLC phosphorylation” value (CCS and CCSM) turn out when `Nc1ncnc2c1ncn2[C@@H]1O[C@H](CO)[C@@H](O)[C@H]1O` [adenosine] was run?
Its value is “decreased PE-mediated MLC phosphorylation”.

And the “adenosine-induced increase in ICP” value ([1]; A2B-deficient mice, injection into the corpus cavernosum)?
Its value is “significantly reduced”.

And the “intracavernous pressure (ICP) and its duration” value ([1]; wild type mice, administration of adenosine)?
Its value is “induced an increase in intracavernous pressure (ICP) and its duration”.

What about the penile erection ([1]; wild type mice, local (intracavernous) injection) of the same molecule?
Its penile erection is “resulted in penile erection”.
